Series [1] in a line: GI S9 stability, human, Example Y. The series is classed as in vitro ADME. As to conditions: pooled intestinal S9 fractions; human intestinal S9, 1.0 mg/mL protein, 2 μM compound, pH 7.4; read-out: GIS9 Human T½ (per Ex. Y). How it is done:
Example Y: GI S9 Stability Data
Stock solutions of test compounds in dimethyl sulfoxide (DMSO) having a final concentration of 10 mM were prepared and used in all experiments. Sekisui XenoTech (Kansas City, KS) provided pooled intestinal S9 fractions. All other chemicals were purchased from Sigma-Aldrich (St. Louis, MO) or VWR (West Chester, PA). Internal Standard/Quench (IS/Q) used to stop reactions was 100 nM labetalol in (by volume) methanol (10%) and acetonitrile (90%).
Stability in Intestinal S9 Fractions: Duplicate aliquots of test compound or positive control substrate were added to S9 stock diluted with phosphate buffered saline (137 mM NaCl, 2.7 mM KCl, 10 mM phosphate buffer), pH 7.4, to obtain a protein concentration of 1.0 mg/mL. The metabolic reactions were initiated by the addition of the substrates to the S9 reaction mixture to a final concentration of 2 μM. At 0, 10, 20, 30, 60 and 120 min, 25 μL aliquots of the reaction mixture were transferred to plates containing 225 μl of IS/Q solution. After quenching, the plates were centrifuged at 3000×g for 30 minutes. 150 μL aliquots of each supernatant were dried down then reconstituted with 300 μL water. Aliquots (10 μL) of the prepared samples were analyzed on a Thermo Q-Exactive mass spectrometer as described below.
Liquid Chromatography—Mass Spectrometry: Quantification of test compounds and control substrate was performed by analyte/internal standard peak area ratio (PAR) values measured on a Thermo Q-Exactive mass spectrometer coupled to a Dionex UltiMate 3000 HPLC with a Leap Technologies HTC PAL autosampler. The column used for analysis was a Waters Acquity BEH C18 (1.7 μm particle size, 2.1×50 mm). Mobile phase A consisted of 0.1% (v/v) formic acid in water. Mobile phase B consisted of 0.1% (v/v) formic acid in acetonitrile. Elution of analytes was achieved by a series of linear gradients varying the proportions of A and B. The mass spectrometer was calibrated on a weekly basis and mass tolerance of 5 ppm was used.
Metabolic stabilities in S9 fractions were determined by measuring the rates of disappearance of test compound and positive control substrate.
Data (% of substrate remaining) were plotted on a semi-log scale and fitted using an exponential decline model:
Ct=C0×e^−ln2/T1/2×t • Where Ct—% of substrate remaining at time=t; C0—% of substrate remaining at time=0; t—time; T1/2—half-life. • The Half-life (T1/2) is determined by the following equation: […]
Assuming a first-order reaction, the slope (k) is extrapolated from the aforementioned plotted data.

The subject of series [2] is Respiratory syncytial virus recombinant with luciferase (RSV-Luc5). The experiment in a line: HEp-2 RSV-Luc5 384-well assay (EC50 RSVFLUC Hep2-384 v2), Example V. The series is classed as cell-based. Conditions: human respiratory syncytial virus, HEp-2, 72 h, read-out: EC50 RSV FLuc Hep-2 384 V2 (per Ex. V). The text has this:
Example V: HEp-2 RSV-Luc5 384-Well Assay (EC50 RSVFLUC Hep2-384 v2)
HEp-2 cell line was purchased from ATCC (Manassas, VA Cat #CCL-23) and maintained in Dulbecco's […] (DMEM) (Corning, New York, NY, Cat #15-018CM) supplemented with 10% fetal bovine serum (FBS) (Hyclone, Logan, UT, Cat #SH30071-03) and 1× Penicillin-Streptomycin-L-Glutamine (Corning, New York, NY, Cat #30-009-C1). Cells were passaged 2 times per week to maintain sub-confluent densities and were used for experiments at passage 5-20. Respiratory syncytial virus recombinant with luciferase (RSV-Luc5) (≥1×107 TCID50/ml) was purchased from Microbiologics (Saint Cloud, MN). Viral replication was determined in HEp-2 cells in the following manner.
Compounds are prepared in 100% DMSO in 384-well polypropylene plates (Greiner, Monroe, NC, Cat #784201) with 8 compounds per plate in grouped replicates of 4 at 10 serially diluted concentrations (1:3). The serially diluted compounds were transferred to low dead volume Echo plates (Labcyte, Sunnyvale, CA, Cat #LP-0200).
The test compounds were spotted to 384-well assay plates (Greiner, Monroe, NC, Cat #781091) at 200 nL per well. HEp-2 cells were harvested and suspended in DMEM (supplemented with 10% FBS and 1× Penicillin-Streptomycin-L-Glutamine) and seeded to the pre-spotted assay plates at 4,000 cells per well in 30 μL. RSV-Luc5 viruses were diluted in DMEM (supplemented with 10% FBS and 1× Penicillin-Streptomycin-L-(Glutamine) at 200,000 Infectious Units (IU) per mL and 10 μL per well was added to the assay plates containing cells and compounds, for an MOI=0.5. The assay plates were incubated for 3 days at 37° C. and 5% CO2. At the end of incubation, One-Glo reagent (Promega, Madison, WI, Cat #E6120) was prepared. The assay plates and One-Glo reagent were equilibrated to room temperature for at least 15 minutes. 40 μL per well of One-Glo reagent was added and the plates were incubated at room temp for 15 minutes before reading the luminescence signal on an EnVision multimode plate reader (Perkin Elmer, Waltham, MA). Remdesivir was used as positive control and DMSO was used as negative control. Values were normalized to the positive and negative controls (as 0% and 100% replication, respectively) and data was fitted using non-linear regression analysis by Gilead's dose response tool. The EC50 value for each compound was then determined as the concentration reducing the viral replication by 50%.

In the case of `N#C[C@]1(COC(=O)OC2CCCC2)O[C@@H](c2ccc3c(N)ncnn23)[C@H](O)[C@@H]1O` [Compound 1, ((2R,3S,4R,5S)-5-(4-aminopyrrolo[2,1-f][1,2,4]triazin-7-yl)-2-cyano-3,4-dihydroxytetrahydrofuran-2-yl)methyl cyclopentyl carbonate], the half-life at 2 μM in series [1] amounted to 31 min. Besides, the EC50 in series [2] was determined as 21.2 µM.
The corresponding values for `CC(C)(C)COC(=O)OC[C@@]1(C#N)O[C@@H](c2ccc3c(N)ncnn23)[C@H](O)[C@@H]1O` [Compound 2, ((2R,3S,4R,5S)-5-(4-aminopyrrolo[2,1-f][1,2,4]triazin-7-yl)-2-cyano-3,4-dihydroxytetrahydrofuran-2-yl)methyl neopentyl carbonate] are 23 min and 9.49 µM.
The corresponding values for `CC[C@H](C)OC(=O)OC[C@@]1(C#N)O[C@@H](c2ccc3c(N)ncnn23)[C@H](O)[C@@H]1O` [Compound 4, ((2R,3S,4R,5S)-5-(4-aminopyrrolo[2,1-f][1,2,4]triazin-7-yl)-2-cyano-3,4-dihydroxytetrahydrofuran-2-yl)methyl ((S)-sec-butyl) carbonate] are 65 min and 24.1 µM.
For `N#C[C@]1(COC(=O)OCCc2ccccc2)O[C@@H](c2ccc3c(N)ncnn23)[C@H](O)[C@@H]1O` [Compound 5, ((2R,3S,4R,5S)-5-(4-aminopyrrolo[2,1-f][1,2,4]triazin-7-yl)-2-cyano-3,4-dihydroxytetrahydrofuran-2-yl)methyl phenethyl carbonate], the half-life at 2 μM in series [1] turned out to be 44 min. Besides, in series [2], the EC50 is 17.9 µM.
Consider `COC(=O)OC[C@@]1(C#N)O[C@@H](c2ccc3c(N)ncnn23)[C@H](O)[C@@H]1O` [Compound 6, ((2R,3S,4R,5S)-5-(4-aminopyrrolo[2,1-f][1,2,4]triazin-7-yl)-2-cyano-3,4-dihydroxytetrahydrofuran-2-yl)methyl methyl carbonate], for which the half-life at 2 μM in series [1] came to 201 min. For the same compound, in series [2], the concentration for a half-maximal effect (EC50) is 17.8 µM.
As for `CC(C)CCOC(=O)OC[C@@]1(C#N)O[C@@H](c2ccc3c(N)ncnn23)[C@H](O)[C@@H]1O` [Compound 7, ((2R,3S,4R,5S)-5-(4-aminopyrrolo[2,1-f][1,2,4]triazin-7-yl)-2-cyano-3,4-dihydroxytetrahydrofuran-2-yl)methyl isopentyl carbonate], the half-life at 2 μM in series [1] was 20 min. Further, the EC50 in series [2] is 16.8 µM.
On the same counts, the results for `CC(C)COC(=O)OC[C@@]1(C#N)O[C@@H](c2ccc3c(N)ncnn23)[C@H](O)[C@@H]1O` [Compound 8, ((2R,3S,4R,5S)-5-(4-aminopyrrolo[2,1-f][1,2,4]triazin-7-yl)-2-cyano-3,4-dihydroxytetrahydrofuran-2-yl)methyl isobutyl carbonate] are 29 min and 11.5 µM.
As for `CCCOC(=O)OC[C@@]1(C#N)O[C@@H](c2ccc3c(N)ncnn23)[C@H](O)[C@@H]1O` [Compound 9, ((2R,3S,4R,5S)-5-(4-aminopyrrolo[2,1-f][1,2,4]triazin-7-yl)-2-cyano-3,4-dihydroxytetrahydrofuran-2-yl)methyl propyl carbonate], the half-life at 2 μM in series [1] was found to be 29 min. Also, the 50% effective concentration (EC50) in series [2] amounted to 13.3 µM.
The corresponding values for `CC[C@@H](C)OC(=O)OC[C@@]1(C#N)O[C@@H](c2ccc3c(N)ncnn23)[C@H](O)[C@@H]1O` [Compound 10, ((2R,3S,4R,5S)-5-(4-aminopyrrolo[2,1-f][1,2,4]triazin-7-yl)-2-cyano-3,4-dihydroxytetrahydrofuran-2-yl)methyl ((R)-sec-butyl) carbonate] are 104 min and 24.7 µM.
Turning to `CC(C)OC(=O)OC[C@@]1(C#N)O[C@@H](c2ccc3c(N)ncnn23)[C@H](O)[C@@H]1O` [Compound 11, ((2R,3S,4R,5S)-5-(4-aminopyrrolo[2,1-f][1,2,4]triazin-7-yl)-2-cyano-3,4-dihydroxytetrahydrofuran-2-yl)methyl isopropyl carbonate], the half-life at 2 μM in series [1] came out at 104 min. Besides, the EC50 in series [2] was 31.2 µM.
Take `N#C[C@]1(COC(=O)OC2CCOCC2)O[C@@H](c2ccc3c(N)ncnn23)[C@H](O)[C@@H]1O` [Compound 12, ((2R,3S,4R,5S)-5-(4-aminopyrrolo[2,1-f][1,2,4]triazin-7-yl)-2-cyano-3,4-dihydroxytetrahydrofuran-2-yl)methyl (tetrahydro-2H-pyran-4-yl) carbonate]: the half-life at 2 μM in series [1] worked out at 789 min. The EC50 in series [2] was above 50 µM.
The corresponding values for `CC(C)(C)OC(=O)OC[C@@]1(C#N)O[C@@H](c2ccc3c(N)ncnn23)[C@H](O)[C@@H]1O` [Compound 13, ((2R,3S,4R,5S)-5-(4-aminopyrrolo[2,1-f][1,2,4]triazin-7-yl)-2-cyano-3,4-dihydroxytetrahydrofuran-2-yl)methyl tert-butyl carbonate] are 97 min and 12.1 µM.
With `CCC(CC)OC(=O)OC[C@@]1(C#N)O[C@@H](c2ccc3c(N)ncnn23)[C@H](O)[C@@H]1O` [Compound 14, ((2R,3S,4R,5S)-5-(4-aminopyrrolo[2,1-f][1,2,4]triazin-7-yl)-2-cyano-3,4-dihydroxytetrahydrofuran-2-yl)methyl pentan-3-yl carbonate], the half-life at 2 μM in series [1] was determined as 104 min. In series [2], the EC50 turned out to be 31.6 µM.
In the case of `CC(C)COC(=O)OC[C@@]1(C#N)O[C@@H](c2ccc3c(N)ncnn23)[C@@H]2OC(=O)O[C@@H]21` [Compound 15, ((3aS,4R,6S,6aS)-6-(4-aminopyrrolo[2,1-f][1,2,4]triazin-7-yl)-4-cyano-2-oxotetrahydrofuro[3,4-d][1,3]dioxol-4-yl)methyl isobutyl carbonate], the half-life at 2 μM in series [1] was determined as 1 min. For the same compound, the EC50 in series [2] stood at 14.4 µM.
On the same counts, the results for `CC(C)COC(=O)Nc1ncnn2c([C@@H]3O[C@](C#N)(CO)[C@@H](O)[C@H]3O)ccc12` [Compound 16, Isobutyl (7-((2S,3R,4S,5R)-5-cyano-3,4-dihydroxy-5-(hydroxymethyl)tetrahydrofuran-2-yl)pyrrolo[2,1-f][1,2,4]triazin-4-yl)carbamate] are 789 min and 50 µM.
The corresponding values for `N#C[C@]1(COC(=O)OC2CCC2)O[C@@H](c2ccc3c(N)ncnn23)[C@H](O)[C@@H]1O` [Compound 17, ((2R,3S,4R,5S)-5-(4-aminopyrrolo[2,1-f][1,2,4]triazin-7-yl)-2-cyano-3,4-dihydroxytetrahydrofuran-2-yl)methyl cyclobutyl carbonate] are 29 min and 24.9 µM.

Values taken from US20230382940A1, “ANTIVIRAL COMPOUNDS AND METHODS OF MAKING AND USING THE SAME” (Gilead Sciences, Inc., priority 2022, published 2023).
